Paper PMC4584356, “A Pimarane Diterpene and Cytotoxic Angucyclines from a Marine-Derived Micromonospora sp. in Vietnam’s East Sea” (Marine Drugs, 2015)
pIC50: −log10 of the molar value. Values after ≈ are worked out from the molar mass of the structure shown.

Assays:
OVCAR4 = assay: cells; type: cell-based; conditions: Homo sapiens, OVCAR-4, 72 h, read-out: Cytotoxicity LC50 OVCAR4
Protocol: (§1) Following their identification, compounds 1–5 were assessed for cytotoxicity in two high-grade ovarian cancer cell lines, OVCAR4 and Kuramochi. Potential for selective cytotoxicity was evaluated using two non-cancerous mouse cell lines representing the putative progenitor cells of ovarian cancer, murine ovarian surface epithelial (MOSE) and murine oviductal epithelial (MOE). […] Generally speaking, this para-quinone scaffold is not an attractive lead, as higher toxicity in non-tumorigenic cell lines confers serious overall toxicity.
(§2) Human ovarian OVCAR4 and Kuramochi cancer cells were maintained in RPMI 1640 (11875-093, Life-technologies; Carlsbad, CA, USA) supplemented with 10% FBS (16000-044, Life-technologies; Carlsbad, CA, USA) and 1% penicillin/streptomycin. Non-cancerous murine ovarian surface epithelium (MOSE) and murine oviductal epithelium (MOE) cells were maintained as previously reported. Concentration-response experiments were performed as previously described for 72 h.

Kuramochi = assay: cells; type: cell-based; conditions: Homo sapiens, 72 h, read-out: Cytotoxicity LC50 Kuramochi
Protocol: as §1, §2

[1] = test system: OVCAR4, Kuramochi, MOSE and MOE cell lines; assay: Cytotoxicity panel of cancerous and non-cancerous cell lines (overall statements, selectivity); type: cell-based; conditions: for Cytotoxicity in the cell line panel (in words): OVCAR4, Kuramochi, MOSE, MOE
Protocol: as §1, §2

[2] = test system: M. tuberculosis H37Rv ATCC 27294; assay: Microplate alamar blue assay (MABA), replicating M. tuberculosis; type: cell-based; conditions: for MIC: Mycobacterium tuberculosis, MIC = lowest concentration giving ≥90% growth inhibition, averaged from triplicates
[3] = test system: M. tuberculosis H37Rv ATCC 27294; assay: Low oxygen recovery assay (LORA), non-replicating M. tuberculosis; type: cell-based; conditions: Mycobacterium tuberculosis
[4] = test system: two fungal species, a human parasite, and several Gram-negative and Gram-positive bacteria; design: method as in PMID 7451359, PMID 7451360; conditions: cited from earlier work
[5] = test system: L1210 lymphocytic leukemia cells; design: method as in PMID 11395569; conditions: L1210 lymphocytic leukemia cells in vitro; read-out: IC50 range, inhibition of tumor cell proliferation and viability; cited from earlier work
Eimeria tenella = test system: Eimeria tenella; design: method as in PMID 7451359, PMID 7451360; conditions: apicomplexan poultry parasite Eimeria tenella; cited from earlier work
[6] = test system: wide range of cancer cell lines; conditions: previous reports; cited from earlier work
[7] = test system: panel of Gram-negative and Gram-positive bacteria; design: method as in PMID 2925509; conditions: cited from earlier work

| Compound | CC50 (OVCAR4) | CC50 (Kuramochi) | Cytotoxicity in the cell line panel (in words) [1] | MIC [2] | MIC [3] | Activity in MABA (in words) [2] | Biological activity against antimicrobial panel (in words) [4] | pIC50 [5] | Greater activity toward Kuramochi ovarian cancer cells ([1]; Kuramochi versus the other cell lines of the panel) | Anticoccidial activity (in words) (Eimeria tenella) | Inhibition of cancer cell lines (in words) [6] | Antibacterial activity (in words) [7] |
| --- | --- | --- | --- | --- | --- | --- | --- | --- | --- | --- | --- | --- |
| Cc1cc(O)c2c3c(ncc2c1)C(=O)c1c(O)cccc1C3=O [Compound 4, phenanthroviridone] | 4.82 µM | 1.11 µM | non-specifically cytotoxic | 0.72 µg/mL (≈ 2.36 µM) | 17.8 µg/mL (≈ 58.3 µM) |  |  |  |  |  |  |  |
| Cc1cc(O)c2c(c1)COC1=C2C(=O)c2cccc(O)c2C1=O [Compound 2, lagumycin B] | > 32.5 µM | > 32.5 µM |  | 2.01 µg/mL (≈ 6.52 µM) | 25.7 µg/mL (≈ 83.4 µM) |  |  |  |  |  |  |  |
| C=C[C@@]1(C)CCC2=C(CC[C@H]3C(C)(C)[C@@H](O)C(=O)C[C@]23C)C1 [Compound 1, isopimara-2-one-3-ol-8,15-diene] | > 33.1 µM | > 33.1 µM | not significantly active | 19.4 µg/mL (≈ 64.1 µM) | > 50 µg/mL | lacked significant activity |  |  |  |  |  |  |
| COc1cc(C)cc2c(=O)oc3c(c12)C(=O)c1cccc(O)c1C3=O [Compound 5, WS-5995 A] | 127 µM | 18.6 µM | enhanced cytotoxicity against the Kuramochi cell line when compared to non-tumorigenic cell lines | 22.7 µg/mL (≈ 67.5 µM) | > 50 µg/mL | lacked significant activity | no significant biological activity | 6.19 to 6.62 | approximately seven-fold | anticoccidial activity |  |  |
| Cc1cc(O)c2c3c(c(O)cc2c1)C(=O)c1c(O)cccc1C3=O [Compound 3, dehydrorabelomycin] | 11 µM | 6.72 µM | non-specifically cytotoxic | 1.01 µg/mL (≈ 3.15 µM) | 19.6 µg/mL (≈ 61.2 µM) |  |  |  |  |  | inhibited a wide range of cancer cell lines at micromolar potency | no detectable activity |
| COc1cccc2c1C(=O)c1c(O)c3c(c(O)c1C2=O)C[C@@](O)(C(=O)CO)C[C@@H]3O[C@H]1C[C@H](N)[C@H](O)[C@H](C)O1 [Doxorubicin, reference compound] | < 0.078 µM | < 0.078 µM |  |  |  |  |  |  |  |  |  |  |
